In US3994882A, “Nitrofuran derivatives, process for the preparation thereof and compositions containing same as active ingredient” (Kabushiki Kaisha Ueno Seiyaku Oyo Kenkyujo, priority 1974, dated 1976) one finds MIC and ED50 data, which are given here for two compounds.

In test [1] the test system is Pasteurella piricida SU. As to the kind of experiment: Minimum growth inhibiting concentration, microorganisms that infect fish (Table 3). Particulars: 2% NaCl added brain-heat infusion agar, 25° C., 24 hours. Format: cell-based. The procedure: (§1) The minimum growth inhibiting concentrations were measured under indentical contitions as in the case of Table 1. The culture temperature was 25° C., the culture being carried out for 48 hours in the asterisked case and 24 hours in the other cases.

Test [2] concerns Aeromonas salmonicida. The description is as above. The test is classed as cell-based. Particulars: 0.5% NaCl added ordinary agar, 25° C., 24 hours. As to the method: as §1
Test [3] has as its system Aeromonas punctata. Described as above. The test is classed as cell-based. Conditions: Aeromonas caviae, 0.5% NaCl added ordinary agar, 25° C., 24 hours. The procedure: as §1
For test [4], the system named is Aeromonas liquefaciens. The test is described as above. The test is classed as cell-based. Particulars: Aeromonas hydrophila, 0.5% NaCl added ordinary agar, 25° C., 24 hours. As to the method:
as §1

Test [5] relates to Chondrococcus columnaris Ek-23. The description is as above. The test is classed as cell-based. Conditions: Flavobacterium columnare, EK23, 0.5% NaCl added TSB agar, 25° C., 48 hours (asterisked). As to the method: as §1
Test [6] relates to Vibrio piscium var. Japonicus. The test is described as above. Format: cell-based. Conditions: Vibrio anguillarum, 0.5% NaCl added ordinary agar, 25° C., 24 hours. The procedure:
as §1

Test [7] deals with Vibrio sp. Sp-1. Described as above. Conditions: SP.SP1, 3% NaCl added ordinary agar, 25° C., 24 hours. The test is classed as cell-based. The procedure: as §1
For test [8], the system named is Vibrio panulirus Vp-M-1. Described as above. The test is classed as cell-based. Particulars: VPM1, 3% NaCl added ordinary agar, 25° C., 24 hours. The procedure:
as §1

Test [9] deals with Vibrio anguillarum K-3. The test is described as above. The test is classed as cell-based. Particulars: K3, 3% NaCl added ordinary agar, 25° C., 24 hours. The procedure:
as §1

Test [10] has as its system Salmonella typhimium K-52. Briefly: Curative action in infected mice (Table 4). The test is classed as in vivo. Conditions: K52, 168 h, mice infected abdominally, oral in 5% gum arabic, observation one week. As to the method:
(§2) Next, in Table 4 are shown the curative actions (ED50 mg/Kg body wt.) and acute toxicities (LD50 mg/kg body wt.) of the typical nitrofuran derivatives of the present invention when used with infected mice.
(§3) Note.- The numerical values in the table denote the amounts per unit body
(§4) weight of the nitrofuran derivatives required for cure when the experimen
(§5) was carried out using mice of body weight of about 20 grams and injecting
(§6) thereinto abdominally the microorganism-containing solutions in amounts o
(§7) 0.2 ml (the microorganism-containing solutions used being those in the
(§8) cases of test microorganisms 1, 3 and 4 in which the microorganism cultur
(§9) liquids were diluted 10^5, 5 and 10^2 times, respectively, and in
(§10) the case of test microorganism 2 that which was concentrated 2 times),
(§11) after which the nitrofuran derivatives suspended in 5% gum arabic were
(§12) forcedly administered orally followed by observation for one week.

The subject of test [11] is Staphylococcus aureus 72r. Briefly: Curative action in infected mice (Table 4). Format: in vivo. Particulars: 168 h, mice infected abdominally, oral in 5% gum arabic, observation one week. As to the method:
as §2, §3, §4, §5, §6, §7, §8, §9, §10, §11, §12

For test [12], the system named is Escherichia coli K-74. As to the kind of experiment: Curative action in infected mice (Table 4). Format: in vivo. Particulars: K74, 168 h, mice infected abdominally, oral in 5% gum arabic, observation one week. As to the method:
as §2, §3, §4, §5, §6, §7, §8, §9, §10, §11, §12

Test [13] deals with Streptococcus hemolyticus A 089. Briefly: Curative action in infected mice (Table 4). Format: in vivo. Particulars: Streptococcus pyogenes, A089, 168 h, mice infected abdominally, oral in 5% gum arabic, observation one week. As to the method: as §2, §3, §4, §5, §6, §7, §8, §9, §10, §11, §12

In brackets after ≈: the same amount, converted by molar mass. Bounds are passed on as bounds.

In general, MIC refers to the smallest concentration in the dilution series that meets the test's criterion for growth inhibition. A lower MIC goes with greater potency. For orientation: ED50 means the dose at which the effect has come halfway, by size or by number of responders. In the case of `O=C(NCCO)c1ccc(C=Cc2ccc([N+](=O)[O-])o2)cc1` [Example 1, 2-Para-[2'-(5"-nitro-2"-furyl)-vinyl]-benzoylaminoethanol], the MIC in [1] was 0.037 µg/mL (≈ 0.122 µM); in test [2] it was 0.018 µg/mL (≈ 0.0595 µM); in test [3], 0.125 µg/mL (≈ 0.414 µM); in [4], 0.062 µg/mL (≈ 0.205 µM); in [5], 0.0037 µg/mL (≈ 0.0122 µM); in [6], less than 0.015 µg/mL. Also, the minimal inhibitory concentration (MIC) worked out at 0.018 µg/mL (≈ 0.0595 µM) in test [7], 0.009 µg/mL (≈ 0.0298 µM) in test [8] and 0.018 µg/mL (≈ 0.0595 µM) in test [9]. In addition, the ED50 in test [10] was determined as 75 mg/kg; in test [11], 14 mg/kg; in test [12] it was 14 mg/kg; in [13] it was 8 mg/kg.

As for `O=C(NCC(O)CO)c1ccc(C=Cc2ccc([N+](=O)[O-])o2)cc1` (centres unmarked) [Example 9, 3-Para-[2'-(5"-nitro-2"-furyl)-vinyl]-benzoylamino-1,2-propanediol], the MIC is 0.037 µg/mL (≈ 0.111 µM) in test [1]; 0.018 µg/mL (≈ 0.0542 µM) in test [2]; 0.25 µg/mL (≈ 0.752 µM) in test [3]; 0.037 µg/mL (≈ 0.111 µM) in [4]; 0.0037 µg/mL (≈ 0.0111 µM) in test [5]; less than 0.015 µg/mL in test [6]. For the same compound, the MIC in test [7] was 0.018 µg/mL (≈ 0.0542 µM); in [8], 0.009 µg/mL (≈ 0.0271 µM); in [9] it was 0.037 µg/mL (≈ 0.111 µM). For the same compound, the ED50 is 100 mg/kg in test [10], 21 mg/kg in test [11], 10 mg/kg in test [12] and 15 mg/kg in test [13].
